Marks after values point to notes of the source that are not given here.
How the values were obtained:
5-LO = biological target: T1, 5-LO (Rattus norvegicus, UniProt P12527); assay: di-HETE production by RBL-1 high speed supernatant; format: biochemical; conditions: concentrations up to 10⁻⁴M; soluble extract of RBL-1 cells
T1 construct: The activities of these enzymes in extracts of RBL-1 cells were assayed; host or cells: RBL-1 cells, disrupted by nitrogen cavitation; 10,000 x g or 100,000 x g supernatant
T1 sequence (P12527 1-673): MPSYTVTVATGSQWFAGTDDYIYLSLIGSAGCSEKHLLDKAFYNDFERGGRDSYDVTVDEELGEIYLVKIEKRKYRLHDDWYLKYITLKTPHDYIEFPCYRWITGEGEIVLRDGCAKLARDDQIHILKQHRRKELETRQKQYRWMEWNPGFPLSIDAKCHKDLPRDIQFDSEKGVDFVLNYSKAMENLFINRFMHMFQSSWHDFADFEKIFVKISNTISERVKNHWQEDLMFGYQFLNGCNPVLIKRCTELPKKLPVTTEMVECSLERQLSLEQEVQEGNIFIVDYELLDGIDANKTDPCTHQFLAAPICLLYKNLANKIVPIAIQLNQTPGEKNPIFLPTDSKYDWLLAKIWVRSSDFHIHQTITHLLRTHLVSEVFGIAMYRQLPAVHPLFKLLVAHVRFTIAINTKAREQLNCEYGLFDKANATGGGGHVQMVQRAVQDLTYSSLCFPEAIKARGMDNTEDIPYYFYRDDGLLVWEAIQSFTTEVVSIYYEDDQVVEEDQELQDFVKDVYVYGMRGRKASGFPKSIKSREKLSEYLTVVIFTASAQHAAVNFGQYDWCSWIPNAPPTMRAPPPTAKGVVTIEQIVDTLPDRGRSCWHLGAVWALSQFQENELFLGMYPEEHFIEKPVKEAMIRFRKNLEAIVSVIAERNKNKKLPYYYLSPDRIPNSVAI
Protocol: For in vitro experiments, compounds were dissolved at appropriate concentrations in ethanol or DMSO (dimethylsulfoxide) (final concentration <1.0%) and then diluted to final concentrations using the buffers indicated in the text.
The activities of these enzymes in extracts of RBL-1 cells were assayed using the method of Jakschik and Lee, Nature, 287, 51-52 (1980). RBL-1 cells were obtained from the American Type Culture Collection (#CRL 1378) and were grown at 37°C (5% CO₂ in air) in spinner culture in MEM supplemented with 10% heat inactivated fetal calf serum. Harvested cells were washed with 50 mM sodium phosphate buffer, pH 7.0, containing 1 mM EDTA and 0.1% gelatin, resuspended in fresh buffer (5 x 10⁷ cells/ml) and disrupted by nitrogen cavitation using the Parr bomb at 750 psi for 10 min. The broken cell extract was then centrifuged at 10,000 x g for 20 minutes and the supernatant centrifuged at 100,000 x g for 60 minutes. Aliquots (0.25 mls) of the supernatant were preincubated with or without drugs for 10 min, after which 10 ul CaCl₂ (50 mM) was added and the reaction was initiated with 2.5 ul of 2.5 mM arachidonic acid-1-¹⁴C (final concentration was […]; specific activity 20,000 dpm/nmole). After incubation for 3 min at 37°C, the reaction was terminated by addition of 2 volumes (0.5 ml) ice cold acetone and the sample was allowed to deproteinize on ice for 10 min prior to centrifugation at 1,000 x g for 10 min. The deproteinized supernatant was adjusted to pH 3.5 with 2N formic acid and extracted with 2 volumes of ice cold ethyl acetate. The extracted samples were dried under argon, redissolved in ethyl acetate and applied to Whatman LK5D thin layer chromatography (TLC) plates which were developed using the A-9 solvent system [organic phase of ethyl acetate: 2,2,5-trimethylpentane:acetic acid: water (110:50:20:10)] described by Hamberg and Samuelsson, J. Biol. Chem., 241, 257-263 (1966). Arachidonic acid, 5-HETE, di-HETE and PGD₂ were quantified with a Berthold LB 2832 autoscanner.
The 5-lipoxygenase and LTA₄ synthetase activities were further studied under the following conditions. An additional centrifugation of the RBL-1 supernatant was run at 100,000 x g for 60 min, to remove the particulate cyclooxygenase activity. Sample incubation was done under conditions similar to those described above, i.e., 2 mM CaCl₂ and 25 uM arachidonic acid-1-¹⁴C, however, with an incubation time of 5 min at […]. Under these conditions, only the 5-lipoxygenase pathway metabolites were detectable. The 5-HETE and di-HETEs were formed at a linear rate, and […] amounts of the arachidonic acid-1-¹⁴C substrate were utilized.

[1] = test system: Carrageenan-Induced Cellular Infiltration; assay: Carrageenan-induced air pouch inflammation; format: in vivo, Lewis rats; conditions: 5 mg/kg; 3 hours after carrageenan
Source text: (§1) In the following Examples where mice were used, they were male Balb/c mice (20-28 g), and where rats were used, they were male Lewis rats (180-210 g). All mice and rats were obtained from Charles River Breeding Laboratories, Kingston, N.Y. Within a single experiment, mice and rats were sex and age matched.
(§2) The compounds of Formula (IA) were used either as the free base or in the appropriate salt form. Levamisole was used as the hydrochloride salt. The compounds were homogenized in 0.5% tragacanth. Compounds were administered by gavage at the indicated dose in a final volume of 10 ml/kg. Nordihydroguaiaretic acid (NDGA) was solubilized in dimethylacetamide and diluted with olive oil for subcutaneous administration.
(§3) Rats were shaved on the dorsal flank, and then injected subcutaneously one day later with 20 ml of air to form a defined pouch, by the method of Sedgwick et al., J. Pathology, 141, 483-495 (1983). The air pouch was reinflated as necessary over the next 6 days. To assay anti-inflammatory activity, animals were treated orally with test compound or vehicle (10 ml/kg) one hour before injection of 2.0 ml of a 2.0% carrageenan suspension containing 200 units/ml penicillin and 100 »g/ml streptomycin into the air pouch. In other experiments, 5 ml of 0.1% arachidonic acid in 0.2 M bicarbonate buffer was injected two hours after drug treatment. Animals were sacrificed using CO₂ three hours after instillation of irritant. The exudate was then aspirated from the pouch and neutrophil count and differential cell count were measured.

[2] = test system: Polymorphonuclear Leukocytes; assay: Mouse Carrageenan Peritonitis (PMN infiltration); format: in vivo, Balb/c mice; conditions: Table 3; 10 mg/kg, p.o.
Source text: as §1, §2
Mice were pretreated with either the test compound or vehicle one hour before the intraperitoneal injection of a 1.0% carrageenan suspension in saline (0.2 ml/ mouse). Mice were sacrificed by cervical dislocation two hours after injection, and 3.0 ml of phosphate buffered saline, without Ca⁺⁺ or Mg⁺⁺, was injected into the peritoneum. Following massage, a 2.0 ml aliquot of the lavage fluid was removed, and the total cell count determined on a Coulter counter and differential cell count determined by microscopic examination of Giesma-stained slides.

[3] = test system: Arachidonic Acid-Induced Inflammation of the Mouse Ear; assay: Arachidonic acid-induced mouse ear inflammation; format: in vivo, Balb/c mice; conditions: Table 7; 10 mg/kg, p.o.
Source text: as §1, §2
Arachidonic acid in acetone (2 mg/20 ul) was applied to the inner surface of the left ear. The thickness of both ears was then measured with a dial micrometer one hour after treatment, and the data were expressed as the change in thickness (10⁻³ cm) between treated and untreated ears.
Test compounds were given orally in 0.5% tragacanth at the times indicated in the text prior to the topical application of arachidonic acid.
Parenteral administration of compound was accomplished by subcutaneous injection of solution as indicated.

[4] = test system: Arachidonic Acid-Induced Rat Paw Edema; assay: Arachidonic acid-induced rat paw swelling; format: in vivo, Lewis rats; conditions: 5 mg/kg, read at 2 hours
Source text: as §1, §2

[5] = test system: Arachidonic Acid-Induced Cellular Infiltration; assay: Arachidonic acid-induced air pouch inflammation; format: in vivo, Lewis rats; conditions: 5 mg/kg; 3 hours after arachidonic acid
Source text: as §1, §2, §3

[6] = test system: Experimental Allergic Encephalomyelitis; assay: Experimental allergic encephalomyelitis, hindleg paralysis; format: in vivo, Female Lewis rats; conditions: p.o. days 0-4, 7-11, 14-18
Protocol: EAE is induced in Female (Charles River) Lewis rats by a single intradermal injection of 0.1 ml of an encephalitogenic emulsion consisting of equial parts of a 50% w/v homogenate of guinea pig spinal cord and mid-brain in 0.5% aqueous phenol and Freund's complete adjuvant (4 mg/ml killed, dried M. butyricum) into a hindpaw (left) footpad. […] Any animal which becomes paralyzed during the course of the experiment is considered to have developed EAE whether or not the paralysis is permanent. Test compounds are administered daily beginning on the day of injection, for 19 days, exclusive of days 5, 6 12 and 13. Drug activity is determined by comparing the indicidence of EAE (paralysis) of the treated group with a control (vehicle) group. The level of significant difference between the treated groups and control groups is determined by a Chi-square test using a 2x2 contingency table. Body weight changes from day 0 are also statistically compared to the control group using a Student "t" test.

In the case of COc1ccc2c(c1)c(CC(=O)O)c(C)n2C(=O)c1ccc(Cl)cc1 [Indomethacin], the “effect on eicosanoid formation (di-HETE production)” value (5-LO) was “inactive”, the “Cellular Infiltrate (Total x 10⁻⁶) MN” value [1] was 4.0 ± 0.8 x 10⁻⁶ and the “Cellular Infiltrate (Total x 10⁻⁶) PMN” value [1] was 2.8 ± 0.7^d x 10⁻⁶. The “Exudate Volume” value [1] was 2.0 ± 0.5 mL, the “% Change” value [2] was -12^b % and the “PMN x 10⁻⁵/ml (mean ± S.D.)” value [2] was 8.20 ± 2.65 x 10⁻⁵/ml. For the same compound, the “Increase in Ear Thickness at 1 Hour (x 10⁻³ cm)” value [3] was 24.4 ± 0.8 x 10⁻³ cm, the “Change in Paw Volume” value ([4]; one hour before arachidonic acid) was 0.29 ± 0.06 mL and the “(% Inhibition) of change in paw volume” value [4] was 0%. For the same compound, the “Cellular Infiltrate (Total x 10⁻⁶) MN” value [5] was 7.0 ± 6.4 x 10⁻⁶, the “Cellular Infiltrate (Total x 10⁻⁶) PMN” value [5] was 5.0 ± 3.8 x 10⁻⁶ and the “Exudate Volume” value [5] was 2.5 ± 0.8 mL. For the same compound, the “HINDLEG PARALYSIS - CUMULATIVE INCIDENCE DAY 9 TO 13” value ([6]; 2 Mg/kg/day) was 6/11 and the “HINDLEG PARALYSIS - CUMULATIVE INCIDENCE DAY 14 TO 18” value ([6]; 2 Mg/kg/day) was 10/11.

CN(Cc1cnc2nc(N)nc(N)c2n1)c1ccc(C(=O)N[C@@H](CCC(=O)O)C(=O)O)cc1 [METHOTREXATE] was tested, and the “HINDLEG PARALYSIS - CUMULATIVE INCIDENCE DAY 9 TO 13” value ([6]; 0.3 Mg/kg/day) was 0/11** and the “HINDLEG PARALYSIS - CUMULATIVE INCIDENCE DAY 14 TO 18” value ([6]; 0.3 Mg/kg/day) was 0/11**.

— patent EP0231622B1, “Inhibition of the 5-lipoxygenase pathway” (priority 1985, dated 1987)
